Laboratory results taken from PubChem BioAssay (NCI).
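GI50: concentration for 50% inhibition of growth. TGI denotes the concentration required for complete inhibition of growth.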

Tests used:
Assay in all cases: NCI-60 cell line screen, 384-well format
CCRF-CEM leukemia = tested on: CCRF-CEM leukemia
UACC-257 melanoma = tested on: UACC-257 melanoma
NCI-H226 lung = tested on: NCI-H226 lung
TK-10 renal = tested on: TK-10 renal
786-0 renal = tested on: 786-0 renal
A498 renal = tested on: A498 renal
DU-145 prostate = tested on: DU-145 prostate
SR leukemia = tested on: SR leukemia
MDA-MB-468 breast = tested on: MDA-MB-468 breast
NCI-H23 lung = tested on: NCI-H23 lung
SF-539 CNS = tested on: SF-539 CNS
K-562 leukemia = tested on: K-562 leukemia
EKVX NSCLC = tested on: EKVX NSCLC
U251 glioblastoma = tested on: U251 glioblastoma
HCC-2998 colon = tested on: HCC-2998 colon
MDA-MB-435 melanoma = tested on: MDA-MB-435 melanoma
NCI-H322M lung = tested on: NCI-H322M lung
BT-549 breast = tested on: BT-549 breast
NCI-H460 NSCLC = tested on: NCI-H460 NSCLC
OVCAR-5 ovarian = tested on: OVCAR-5 ovarian
M14 melanoma = tested on: M14 melanoma
SK-MEL-5 melanoma = tested on: SK-MEL-5 melanoma
A549 NSCLC = tested on: A549 NSCLC
ACHN renal = tested on: ACHN renal
SF-268 CNS = tested on: SF-268 CNS
HOP-92 NSCLC = tested on: HOP-92 NSCLC
SK-MEL-28 melanoma = tested on: SK-MEL-28 melanoma
LOX IMVI melanoma = tested on: LOX IMVI melanoma
COLO 205 colon = tested on: COLO 205 colon
HL-60(TB) leukemia = tested on: HL-60(TB) leukemia
SNB-75 CNS = tested on: SNB-75 CNS
HT29 colon = tested on: HT29 colon
MDA-MB-231 breast = tested on: MDA-MB-231 breast
IGROV1 ovarian = tested on: IGROV1 ovarian
HCT-15 colon = tested on: HCT-15 colon
PC-3 prostate = tested on: PC-3 prostate
OVCAR-4 ovarian = tested on: OVCAR-4 ovarian
KM12 colon = tested on: KM12 colon
UO-31 renal = tested on: UO-31 renal
MOLT-4 leukemia = tested on: MOLT-4 leukemia
SW-620 colon = tested on: SW-620 colon
HCT-116 colon = tested on: HCT-116 colon
SK-MEL-2 melanoma = tested on: SK-MEL-2 melanoma
UACC-62 melanoma = tested on: UACC-62 melanoma
MCF7 breast = tested on: MCF7 breast
MALME-3M melanoma = tested on: MALME-3M melanoma
HS 578T breast = tested on: HS 578T breast
SF-295 CNS = tested on: SF-295 CNS
SN12C renal = tested on: SN12C renal
NCI-H522 lung = tested on: NCI-H522 lung
RPMI-8226 leukemia = tested on: RPMI-8226 leukemia
SK-OV-3 ovarian = tested on: SK-OV-3 ovarian
NCI/ADR-RES ovarian = tested on: NCI/ADR-RES ovarian
OVCAR-3 ovarian = tested on: OVCAR-3 ovarian
RXF 393 renal = tested on: RXF 393 renal
HOP-62 NSCLC = tested on: HOP-62 NSCLC
T-47D breast = tested on: T-47D breast
CAKI-1 renal = tested on: CAKI-1 renal

## O=C(O)c1ccc2c(c1)nc(Nc1cccc(Cl)c1)c1ccncc12
CCRF-CEM leukemia
  GI50: 1180 nM
  TGI: 2420 nM
UACC-257 melanoma
  GI50: 1570 nM
  TGI: 3460 nM
NCI-H226 lung
  GI50: 1260 nM
  TGI: 2660 nM
TK-10 renal
  GI50: 2140 nM
  TGI: 5810 nM
786-0 renal
  GI50: 1750 nM
  TGI: 4750 nM
A498 renal
  GI50: 1420 nM
  TGI: 3310 nM
DU-145 prostate
  GI50: 1710 nM
  TGI: 5200 nM
SR leukemia
  GI50: 1450 nM
  TGI: 2770 nM
MDA-MB-468 breast
  GI50: 656 nM
  TGI: 2050 nM
NCI-H23 lung
  GI50: 1420 nM
  TGI: 2970 nM
SF-539 CNS
  GI50: 1190 nM
  TGI: 3000 nM
K-562 leukemia
  GI50: 1500 nM
  TGI: 3320 nM
EKVX NSCLC
  GI50: 1480 nM
  TGI: 3930 nM
U251 glioblastoma
  GI50: 888 nM
  TGI: 2460 nM
HCC-2998 colon
  GI50: 1380 nM
  TGI: 3890 nM
MDA-MB-435 melanoma
  GI50: 1450 nM
  TGI: 3330 nM
NCI-H322M lung
  GI50: 1080 nM
  TGI: 3290 nM
BT-549 breast
  GI50: 1020 nM
  TGI: 2670 nM
NCI-H460 NSCLC
  GI50: 2280 nM
  TGI: 7890 nM
OVCAR-5 ovarian
  GI50: 1770 nM
  TGI: 8810 nM
M14 melanoma
  GI50: 1270 nM
  TGI: 3080 nM
SK-MEL-5 melanoma
  GI50: 1400 nM
  TGI: 2710 nM
A549 NSCLC
  GI50: 2990 nM
  TGI: > 100000 nM
ACHN renal
  GI50: 2520 nM
  TGI: 8010 nM
SF-268 CNS
  GI50: 1150 nM
  TGI: 2870 nM
HOP-92 NSCLC
  GI50: 1420 nM
  TGI: 4650 nM
SK-MEL-28 melanoma
  GI50: 1470 nM
  TGI: 3160 nM
LOX IMVI melanoma
  GI50: 1870 nM
  TGI: 3800 nM
COLO 205 colon
  GI50: 1860 nM
  TGI: 4140 nM
HL-60(TB) leukemia
  GI50: 1540 nM
  TGI: 2930 nM
SNB-75 CNS
  GI50: 1410 nM
  TGI: 3850 nM
HT29 colon
  GI50: 2950 nM
  TGI: 10100 nM
MDA-MB-231 breast
  GI50: 1560 nM
  TGI: 3700 nM
IGROV1 ovarian
  GI50: 1950 nM
  TGI: 4640 nM
HCT-15 colon
  GI50: 1740 nM
  TGI: 3660 nM
PC-3 prostate
  GI50: 1600 nM
  TGI: 3690 nM
OVCAR-4 ovarian
  GI50: 1540 nM
  TGI: 6770 nM
KM12 colon
  GI50: 1890 nM
  TGI: 4380 nM
UO-31 renal
  GI50: 2150 nM
  TGI: 6110 nM
MOLT-4 leukemia
  GI50: 1400 nM
  TGI: 2730 nM
SW-620 colon
  GI50: 2030 nM
  TGI: 4790 nM
HCT-116 colon
  GI50: 1530 nM
  TGI: 3080 nM
SK-MEL-2 melanoma
  GI50: 2970 nM
  TGI: 4540 nM
UACC-62 melanoma
  GI50: 1370 nM
  TGI: 2770 nM
MCF7 breast
  GI50: 1490 nM
  TGI: 4060 nM
MALME-3M melanoma
  GI50: 1040 nM
  TGI: 2560 nM
HS 578T breast
  GI50: 445 nM
  TGI: 2330 nM
SF-295 CNS
  GI50: 1810 nM
  TGI: 4590 nM
SN12C renal
  GI50: 1500 nM
  TGI: 3690 nM
NCI-H522 lung
  GI50: 521 nM
  TGI: 1840 nM
RPMI-8226 leukemia
  GI50: 1880 nM
  TGI: 3350 nM
SK-OV-3 ovarian
  GI50: 1430 nM
  TGI: 3940 nM
NCI/ADR-RES ovarian
  GI50: 1690 nM
  TGI: 3280 nM
OVCAR-3 ovarian
  GI50: 399 nM
  TGI: 1950 nM
RXF 393 renal
  GI50: 1560 nM
  TGI: 3980 nM
HOP-62 NSCLC
  GI50: 1730 nM
  TGI: 3860 nM
T-47D breast
  GI50: 1400 nM
  TGI: 3550 nM
CAKI-1 renal
  GI50: 1530 nM
  TGI: 3730 nM
